From publication PMC2954295 (Chemistry & Biology, 2010)

Experiments:
human OGA (O-GlcNAcase) = target: T1, human OGA (O-GlcNAcase) (Homo sapiens, UniProt O60502); assay: continuous UV/Vis assay with pNP-GlcNAc substrate, recombinant enzyme; assay type: biochemical
T1 sequence (O60502 1-916): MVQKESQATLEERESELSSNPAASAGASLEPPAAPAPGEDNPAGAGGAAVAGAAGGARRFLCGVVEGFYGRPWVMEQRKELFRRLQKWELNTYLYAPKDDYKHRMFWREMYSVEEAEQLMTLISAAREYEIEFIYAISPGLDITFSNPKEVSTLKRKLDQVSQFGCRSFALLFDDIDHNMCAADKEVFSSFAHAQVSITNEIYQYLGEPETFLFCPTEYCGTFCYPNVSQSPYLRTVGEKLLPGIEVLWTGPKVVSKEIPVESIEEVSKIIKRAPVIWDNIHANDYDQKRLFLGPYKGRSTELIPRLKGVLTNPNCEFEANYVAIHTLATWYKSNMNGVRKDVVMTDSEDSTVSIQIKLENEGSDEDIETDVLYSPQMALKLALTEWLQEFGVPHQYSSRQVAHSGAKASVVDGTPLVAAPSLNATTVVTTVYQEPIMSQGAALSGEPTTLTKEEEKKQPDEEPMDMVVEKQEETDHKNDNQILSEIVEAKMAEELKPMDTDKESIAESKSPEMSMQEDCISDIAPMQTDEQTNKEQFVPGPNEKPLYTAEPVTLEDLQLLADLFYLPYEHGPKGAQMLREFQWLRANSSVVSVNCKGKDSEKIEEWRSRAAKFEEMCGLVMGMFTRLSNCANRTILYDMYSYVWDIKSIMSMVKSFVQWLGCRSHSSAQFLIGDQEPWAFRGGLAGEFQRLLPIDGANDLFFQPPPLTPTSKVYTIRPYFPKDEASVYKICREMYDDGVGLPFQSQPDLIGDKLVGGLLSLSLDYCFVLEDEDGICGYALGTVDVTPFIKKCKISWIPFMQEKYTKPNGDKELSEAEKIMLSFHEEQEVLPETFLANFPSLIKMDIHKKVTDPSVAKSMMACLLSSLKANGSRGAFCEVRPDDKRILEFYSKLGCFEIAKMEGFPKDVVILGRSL

human HexB = human HexB (Homo sapiens, UniProt P07686); assay: inhibition kinetics with pNP-GlcNAc substrate, Lineweaver-Burk; assay type: biochemical
Sequence of human HexB (P07686 122-311): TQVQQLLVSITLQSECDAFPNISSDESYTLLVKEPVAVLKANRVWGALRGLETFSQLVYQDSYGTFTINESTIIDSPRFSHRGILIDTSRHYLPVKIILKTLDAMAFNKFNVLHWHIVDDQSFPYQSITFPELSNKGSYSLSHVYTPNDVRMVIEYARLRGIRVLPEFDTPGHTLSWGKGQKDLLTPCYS
Sequence of human HexB (P07686 315-556): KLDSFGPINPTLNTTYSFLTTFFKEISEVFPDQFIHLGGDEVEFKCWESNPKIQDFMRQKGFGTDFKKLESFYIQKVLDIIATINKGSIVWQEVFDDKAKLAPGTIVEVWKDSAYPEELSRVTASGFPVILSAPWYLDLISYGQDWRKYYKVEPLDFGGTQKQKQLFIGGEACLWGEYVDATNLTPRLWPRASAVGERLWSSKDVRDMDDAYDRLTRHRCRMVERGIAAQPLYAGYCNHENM

SMILES: CC(=O)N[C@H]1CN2CC[C@H](O)[C@@H]2[C@@H](O)[C@@H]1O [6-Ac-Cas]
- Ki (human OGA (O-GlcNAcase)): 300 nM
- Ki (human HexB): 250 nM
